From ChEMBL document CHEMBL3885861, “Open TG-GATES”

Species: Rattus norvegicus
Assay: Open TG-GATES - Regimen: Daily Repeat
Format: toxicity, organism-based, Sprague-Dawley
Set-up: regimen Daily Repeat, gender Male, age 6 weeks
Details: in vivo, po, 0 mg/kg, route gavage, dose level Control; for APTT / Bas / Eos / Fbg / Hb / Ht / Lym / MCH / MCHC / MCV / Mono / Neu / PT / Plat / RBC / Ret / WBC: tissue Blood; for KIDNEY_L / KIDNEY_R / KIDNEY_TOTAL: tissue Kidney; for LIVER: tissue Liver; for A/G / ALP / ALT / AST / BUN / CRE / Ca / Cl / DBIL / GLC / IP / K / LDH / Na / PL / RALB / TBIL / TC / TG / TP / gamma-GTP: tissue Plasma

SMILES: O=C(N[C@H](CO)[C@H](O)c1ccc([N+](=O)[O-])cc1)C(Cl)Cl [CHLORAMPHENICOL]
- TERMINAL_BW (72 h, time 3 day): 250.4 g
- APTT (72 h, time 3 day): 17.1 s
- Bas (72 h, time 3 day): 0%
- Eos (72 h, time 3 day): 1.2%
- Fbg (72 h, time 3 day): 270.4 mg/dL
- Hb (72 h, time 3 day): 13.1 g/dL
- Ht (72 h, time 3 day): 40.4%
- Lym (72 h, time 3 day): 71.6%
- MCH (72 h, time 3 day): 21.5 pg
- MCHC (72 h, time 3 day): 32.4%
- MCV (72 h, time 3 day): 66.2 fL
- Mono (72 h, time 3 day): 3%
- Neu (72 h, time 3 day): 23.8%
- PT (72 h, time 3 day): 14.4 s
- Plat (72 h, time 3 day): 109.8 x10_4/uL
- RBC (72 h, time 3 day): 611.2 x10_4/ul
- Ret (72 h, time 3 day): 7%
- WBC (72 h, time 3 day): 78.3 x10_2/uL
- KIDNEY_L (72 h, time 3 day): 1.1 g
- KIDNEY_R (72 h, time 3 day): 1.1 g
- KIDNEY_TOTAL (72 h, time 3 day): 2.2 g
- LIVER (72 h, time 3 day): 12.4 g
- A/G (72 h, time 3 day): 0.9
- ALP (72 h, time 3 day): 1702 IU/L
- ALT (72 h, time 3 day): 44 IU/L
- AST (72 h, time 3 day): 66.4 IU/L
- BUN (72 h, time 3 day): 15 mg/dL
- CRE (72 h, time 3 day): 0.2 mg/dL
- Ca (72 h, time 3 day): 11.3 mg/dL
- Cl (72 h, time 3 day): 105 meq/L
- DBIL (72 h, time 3 day): 0.022 mg/dL
- GLC (72 h, time 3 day): 186.8 mg/dL
- IP (72 h, time 3 day): 7.1 mg/dL
- K (72 h, time 3 day): 4.1 meq/L
- LDH (72 h, time 3 day): 80.8 IU/L
- Na (72 h, time 3 day): 140.4 meq/L
- PL (72 h, time 3 day): 154 mg/dL
- RALB (72 h, time 3 day): 2.7 g/dL
- TBIL (72 h, time 3 day): 0.048 mg/dL
- TC (72 h, time 3 day): 78.4 mg/dL
- TG (72 h, time 3 day): 127.6 mg/dL
- TP (72 h, time 3 day): 5.7 g/dL
- gamma-GTP (72 h, time 3 day): 1.2 IU/L
- TERMINAL_BW ([…], time 7 day): 289.7 g
- TERMINAL_BW ([…], time 14 day): 334.8 g
- TERMINAL_BW ([…], time 28 day): 425.6 g
- APTT ([…], time 7 day): 17.6 s
- Bas ([…], time 7 day): 0%
- Eos ([…], time 7 day): 0.8%
- Fbg ([…], time 7 day): 274.8 mg/dL
- Hb ([…], time 7 day): 13.7 g/dL
- Ht ([…], time 7 day): 42%
- Lym ([…], time 7 day): 77.8%
- MCH ([…], time 7 day): 21.4 pg
- MCHC ([…], time 7 day): 32.6%
- MCV ([…], time 7 day): 65.7 fL
- Mono ([…], time 7 day): 2.6%
- Neu ([…], time 7 day): 18.2%
- PT ([…], time 7 day): 14.1 s
- Plat ([…], time 7 day): 131.7 x10_4/uL
- RBC ([…], time 7 day): 640.6 x10_4/ul
- Ret ([…], time 7 day): 5.6%
- WBC ([…], time 7 day): 92.1 x10_2/uL
- APTT ([…], time 14 day): 16.9 s
- Bas ([…], time 14 day): 0%
- Eos ([…], time 14 day): 1%
- Fbg ([…], time 14 day): 272 mg/dL
- Hb ([…], time 14 day): 14.6 g/dL
- Ht ([…], time 14 day): 44.5%
- Lym ([…], time 14 day): 78.4%
- MCH ([…], time 14 day): 20.3 pg
- MCHC ([…], time 14 day): 32.6%
- MCV ([…], time 14 day): 62.3 fL
- Mono ([…], time 14 day): 2.2%
- Neu ([…], time 14 day): 18%
- PT ([…], time 14 day): 14.8 s
- Plat ([…], time 14 day): 122.4 x10_4/uL
- RBC ([…], time 14 day): 715.4 x10_4/ul
- Ret ([…], time 14 day): 3.8%
- WBC ([…], time 14 day): 90.5 x10_2/uL
- APTT ([…], time 28 day): 18.3 s
- Bas ([…], time 28 day): 0%
- Eos ([…], time 28 day): 1.6%
- Fbg ([…], time 28 day): 259 mg/dL
- Hb ([…], time 28 day): 15.5 g/dL
- Ht ([…], time 28 day): 45.1%
- Lym ([…], time 28 day): 77.4%
- MCH ([…], time 28 day): 20 pg
- MCHC ([…], time 28 day): 34.3%
- MCV ([…], time 28 day): 58.3 fL
- Mono ([…], time 28 day): 1.8%
- Neu ([…], time 28 day): 18.4%
- PT ([…], time 28 day): 14.8 s
- Plat ([…], time 28 day): 93.9 x10_4/uL
- RBC ([…], time 28 day): 773 x10_4/ul
- Ret ([…], time 28 day): 2.2%
- WBC ([…], time 28 day): 79.4 x10_2/uL
- KIDNEY_L ([…], time 7 day): 1.2 g
- KIDNEY_R ([…], time 7 day): 1.2 g
- KIDNEY_TOTAL ([…], time 7 day): 2.4 g
- KIDNEY_L ([…], time 14 day): 1.3 g
- KIDNEY_R ([…], time 14 day): 1.3 g
- KIDNEY_TOTAL ([…], time 14 day): 2.6 g
- KIDNEY_L ([…], time 28 day): 1.4 g
- KIDNEY_R ([…], time 28 day): 1.4 g
- KIDNEY_TOTAL ([…], time 28 day): 2.8 g
- LIVER ([…], time 7 day): 13.8 g
- LIVER ([…], time 14 day): 13.9 g
- LIVER ([…], time 28 day): 17 g
- A/G ([…], time 7 day): 0.9
- ALP ([…], time 7 day): 1839.2 IU/L
- ALT ([…], time 7 day): 44.4 IU/L
- AST ([…], time 7 day): 69.4 IU/L
- BUN ([…], time 7 day): 15.4 mg/dL
- CRE ([…], time 7 day): 0.2 mg/dL
- Ca ([…], time 7 day): 11.3 mg/dL
- Cl ([…], time 7 day): 106.4 meq/L
- DBIL ([…], time 7 day): 0.024 mg/dL
- GLC ([…], time 7 day): 188.8 mg/dL
- IP ([…], time 7 day): 7.5 mg/dL
- K ([…], time 7 day): 3.9 meq/L
- LDH ([…], time 7 day): 64.2 IU/L
- Na ([…], time 7 day): 143.2 meq/L
- PL ([…], time 7 day): 162.2 mg/dL
- RALB ([…], time 7 day): 2.7 g/dL
- TBIL ([…], time 7 day): 0.052 mg/dL
- TC ([…], time 7 day): 79 mg/dL
- TG ([…], time 7 day): 140.4 mg/dL
- TP ([…], time 7 day): 5.9 g/dL
- gamma-GTP ([…], time 7 day): 1.2 IU/L
- A/G ([…], time 14 day): 0.8
- ALP ([…], time 14 day): 1466.2 IU/L
- ALT ([…], time 14 day): 37.2 IU/L
- AST ([…], time 14 day): 63.6 IU/L
- BUN ([…], time 14 day): 17.2 mg/dL
- CRE ([…], time 14 day): 0.2 mg/dL
- Ca ([…], time 14 day): 11.1 mg/dL
- Cl ([…], time 14 day): 107.2 meq/L
- DBIL ([…], time 14 day): 0.024 mg/dL
- GLC ([…], time 14 day): 187.6 mg/dL
- IP ([…], time 14 day): 6.5 mg/dL
- K ([…], time 14 day): 4.5 meq/L
- LDH ([…], time 14 day): 59 IU/L
- Na ([…], time 14 day): 143 meq/L
- PL ([…], time 14 day): 151.6 mg/dL
- RALB ([…], time 14 day): 2.7 g/dL
- TBIL ([…], time 14 day): 0.05 mg/dL
- TC ([…], time 14 day): 63.6 mg/dL
- TG ([…], time 14 day): 189.6 mg/dL
- TP ([…], time 14 day): 6 g/dL
- gamma-GTP ([…], time 14 day): 1 IU/L
- A/G ([…], time 28 day): 0.8
- ALP ([…], time 28 day): 1089.6 IU/L
- ALT ([…], time 28 day): 36.4 IU/L
- AST ([…], time 28 day): 60 IU/L
- BUN ([…], time 28 day): 17 mg/dL
- CRE ([…], time 28 day): 0.2 mg/dL
- Ca ([…], time 28 day): 11 mg/dL
- Cl ([…], time 28 day): 104.4 meq/L
- DBIL ([…], time 28 day): 0.018 mg/dL
- GLC ([…], time 28 day): 193.4 mg/dL
- IP ([…], time 28 day): 6.2 mg/dL
- K ([…], time 28 day): 3.7 meq/L
- LDH ([…], time 28 day): 47.2 IU/L
- Na ([…], time 28 day): 143.8 meq/L
- PL ([…], time 28 day): 141.4 mg/dL
- RALB ([…], time 28 day): 2.7 g/dL
- TBIL ([…], time 28 day): 0.054 mg/dL
- TC ([…], time 28 day): 66 mg/dL
- TG ([…], time 28 day): 136.6 mg/dL
- TP ([…], time 28 day): 6.3 g/dL
- gamma-GTP ([…], time 28 day): 1 IU/L
